{
  "source": "patent US9125388B2",
  "about": "“Biological control” (Isis Innovation Limited, priority 1999, dated 2015)",
  "key": {"[1]": {"system": "Yp3 tTa, tRe Ras64B^V12 on the 2nd chromosome", "assay": "Recombinant chromosome experiments / maternal transmission of Tc (Table 1): parents raised on supplement, progeny on normal food, adults by sex", "type": "in vivo, Drosophila melanogaster", "conditions": "for ♀ progeny emerging as adults / ♂ progeny emerging as adults: 25° C.", "protocol": "40-45 young females and 20-25 young males raised at 25° C. upon food with the indicated tetracycline supplement were allowed to mate, then transferred to normal (tetracycline-free) food after 3-4 days. These flies were transferred to fresh vials of normal food every day for 12 days, then removed on the 13th day. All the vials were incubated at 25° C. while the progeny developed. The numbers of male and female progeny emerging as adults in each vial were recorded.\nA standard range of additive concentrations were used in the following experiments (0.05-20 μg/ml). […] (=“not done”)\nAll the preceding experiments were performed at 25° C., the standard temperature for Drosophila culture. However, the insects in the wild would clearly be exposed to varying temperatures, so we investigated the extent to which the efficiency of the system is affected by temperature. As with the recombinant chromosome experiments, 40-45 young virgin females and 20-25 young males raised at 25° C. upon food with the indicated tetracycline supplement were allowed to mate, then transferred to normal (tetracycline-free) food after 3-4 days. These flies were transferred to fresh vials of normal food every day. The numbers of male and female progeny emerging as adults in each vial were recorded. These experiments were performed at either 18° C. or 29° C.\nWe used a strain of Drosophila in which females, but not males, require Tc for viability.\nA strain homozygous for second chromosome insertions of both Yp3-tTA and tRe-Ras64B^V12 was tested for the effect of parental dietary Tc. 40-45 young females and 20-25 young males raised at 25° C. upon food with the indicated tetracycline supplement were allowed to mate, then transferred to normal (tetracycline-free) food after 3-4 days. These flies were transferred to fresh vials of normal food every day for 12 days, and then removed on the 13th day. All the vials were incubated at 25° C. while the progeny developed. The total numbers of male and female progeny emerging as adults were recorded."}, "[2]": {"system": "(Male) Sxlp^e tTa^(A) × tRe lacZ^(III) (Female)", "assay": "Reporter crosses at 25° C., embryos stained for lacZ"}, "[3]": {"conditions": "parents raised on Tc 500 μg/ml, Day 2 on normal food"}, "[4]": {"conditions": "parents raised on Tc 500 μg/ml, Day 3 on normal food"}, "[5]": {"conditions": "parents raised on Tc 500 μg/ml, Day 4 on normal food"}, "[6]": {"conditions": "parents raised on Tc 500 μg/ml, Day 5 on normal food"}, "[7]": {"conditions": "parents raised on Tc 500 μg/ml, Day 6 on normal food"}, "[8]": {"conditions": "parents raised on Tc 500 μg/ml, Day 7 on normal food"}, "[9]": {"conditions": "parents raised on Tc 1000 μg/ml, Day 1 on normal food"}, "[10]": {"conditions": "parents raised on Tc 1000 μg/ml, Day 2 on normal food"}, "[11]": {"conditions": "parents raised on Tc 1000 μg/ml, Day 3 on normal food"}, "[12]": {"conditions": "parents raised on Tc 1000 μg/ml, Day 4 on normal food"}, "[13]": {"conditions": "parents raised on Tc 1000 μg/ml, Day 5 on normal food"}, "[14]": {"conditions": "parents raised on Tc 1000 μg/ml, Day 6 on normal food"}, "[15]": {"conditions": "parents raised on Tc 1000 μg/ml, Day 7 on normal food"}, "[16]": {"conditions": "parents raised on Tc 2000 μg/ml, Day 1 on normal food"}, "[17]": {"conditions": "parents raised on Tc 2000 μg/ml, Day 2 on normal food"}, "[18]": {"conditions": "parents raised on Tc 2000 μg/ml, Day 3 on normal food"}, "[19]": {"conditions": "parents raised on Tc 2000 μg/ml, Day 4 on normal food"}, "[20]": {"conditions": "parents raised on Tc 2000 μg/ml, Day 5 on normal food"}, "[21]": {"conditions": "parents raised on Tc 2000 μg/ml, Day 6 on normal food"}, "[22]": {"conditions": "parents raised on Tc 2000 μg/ml, Day 7 on normal food"}, "[23]": {"conditions": "parents raised on tetracycline 0.1 μg/ml, 18° C."}, "[24]": {"conditions": "parents raised on tetracycline 0.1 μg/ml, 29° C."}, "[25]": {"conditions": "parents raised on tetracycline 1 μg/ml, 18° C."}, "[26]": {"conditions": "parents raised on tetracycline 1 μg/ml, 29° C."}, "[27]": {"conditions": "parents raised on tetracycline 5 μg/ml, 18° C."}, "[28]": {"conditions": "parents raised on tetracycline 5 μg/ml, 29° C."}},
  "data": [
    {"smiles": "CN(C)[C@@H]1C(O)=C(C(N)=O)C(=O)[C@@]2(O)C(O)=C3C(=O)c4c(O)cccc4[C@@](C)(O)[C@H]3C[C@@H]12", "note": "[Tetracycline, tetracycline]", "values": [
      {"measurement": "♀ progeny emerging as adults", "setting": "[1]; [3]", "value": 0},
      {"measurement": "♂ progeny emerging as adults", "setting": "[1]; [3]", "value": 88},
      {"measurement": "♀ progeny emerging as adults", "setting": "[1]; [4]", "value": 0},
      {"measurement": "♂ progeny emerging as adults", "setting": "[1]; [4]", "value": 113},
      {"measurement": "♀ progeny emerging as adults", "setting": "[1]; [5]", "value": 0},
      {"measurement": "♂ progeny emerging as adults", "setting": "[1]; [5]", "value": 113},
      {"measurement": "♀ progeny emerging as adults", "setting": "[1]; [6]", "value": 0},
      {"measurement": "♂ progeny emerging as adults", "setting": "[1]; [6]", "value": 87},
      {"measurement": "♀ progeny emerging as adults", "setting": "[1]; [7]", "value": 0},
      {"measurement": "♂ progeny emerging as adults", "setting": "[1]; [7]", "value": 94},
      {"measurement": "♀ progeny emerging as adults", "setting": "[1]; [8]", "value": 0},
      {"measurement": "♂ progeny emerging as adults", "setting": "[1]; [8]", "value": 109},
      {"measurement": "♀ progeny emerging as adults", "setting": "[1]; [9]", "value": 13},
      {"measurement": "♂ progeny emerging as adults", "setting": "[1]; [9]", "value": 107},
      {"measurement": "♀ progeny emerging as adults", "setting": "[1]; [10]", "value": 5},
      {"measurement": "♂ progeny emerging as adults", "setting": "[1]; [10]", "value": 140},
      {"measurement": "♀ progeny emerging as adults", "setting": "[1]; [11]", "value": 0},
      {"measurement": "♂ progeny emerging as adults", "setting": "[1]; [11]", "value": 110},
      {"measurement": "♀ progeny emerging as adults", "setting": "[1]; [12]", "value": 0},
      {"measurement": "♂ progeny emerging as adults", "setting": "[1]; [12]", "value": 141},
      {"measurement": "♀ progeny emerging as adults", "setting": "[1]; [13]", "value": 0},
      {"measurement": "♂ progeny emerging as adults", "setting": "[1]; [13]", "value": 98},
      {"measurement": "♀ progeny emerging as adults", "setting": "[1]; [14]", "value": 0},
      {"measurement": "♂ progeny emerging as adults", "setting": "[1]; [14]", "value": 129},
      {"measurement": "♀ progeny emerging as adults", "setting": "[1]; [15]", "value": 0},
      {"measurement": "♂ progeny emerging as adults", "setting": "[1]; [15]", "value": 88},
      {"measurement": "♀ progeny emerging as adults", "setting": "[1]; [16]", "value": 32},
      {"measurement": "♂ progeny emerging as adults", "setting": "[1]; [16]", "value": 119},
      {"measurement": "♀ progeny emerging as adults", "setting": "[1]; [17]", "value": 15},
      {"measurement": "♂ progeny emerging as adults", "setting": "[1]; [17]", "value": 102},
      {"measurement": "♀ progeny emerging as adults", "setting": "[1]; [18]", "value": 12},
      {"measurement": "♂ progeny emerging as adults", "setting": "[1]; [18]", "value": 107},
      {"measurement": "♀ progeny emerging as adults", "setting": "[1]; [19]", "value": 9},
      {"measurement": "♂ progeny emerging as adults", "setting": "[1]; [19]", "value": 109},
      {"measurement": "♀ progeny emerging as adults", "setting": "[1]; [20]", "value": 8},
      {"measurement": "♂ progeny emerging as adults", "setting": "[1]; [20]", "value": 109},
      {"measurement": "♀ progeny emerging as adults", "setting": "[1]; [21]", "value": 2},
      {"measurement": "♂ progeny emerging as adults", "setting": "[1]; [21]", "value": 140},
      {"measurement": "♀ progeny emerging as adults", "setting": "[1]; [22]", "value": 0},
      {"measurement": "♂ progeny emerging as adults", "setting": "[1]; [22]", "value": 127},
      {"measurement": "Female progeny emerging as adults", "setting": "[1]; [23]", "value": 2},
      {"measurement": "Male progeny emerging as adults", "setting": "[1]; [23]", "value": 1190},
      {"measurement": "Female progeny emerging as adults", "setting": "[1]; [24]", "value": 0},
      {"measurement": "Male progeny emerging as adults", "setting": "[1]; [24]", "value": 718},
      {"measurement": "Female progeny emerging as adults", "setting": "[1]; [25]", "value": 4},
      {"measurement": "Male progeny emerging as adults", "setting": "[1]; [25]", "value": 1213},
      {"measurement": "Female progeny emerging as adults", "setting": "[1]; [26]", "value": 0},
      {"measurement": "Male progeny emerging as adults", "setting": "[1]; [26]", "value": 753},
      {"measurement": "Female progeny emerging as adults", "setting": "[1]; [27]", "value": 0},
      {"measurement": "Male progeny emerging as adults", "setting": "[1]; [27]", "value": 1058},
      {"measurement": "Female progeny emerging as adults", "setting": "[1]; [28]", "value": 0},
      {"measurement": "Male progeny emerging as adults", "setting": "[1]; [28]", "value": 757},
      {"measurement": "parental food concentration leading to survival of a small proportion of female progeny", "setting": "[1]; progeny on media lacking Tc", "value": "≥ 500", "unit": "µg/mL"},
      {"measurement": "food concentration sufficient to suppress expression of the toxic gene, allowing both males and females to survive", "setting": "[1]; strain grown on supplemented food", "value": 0.1, "unit": "µg/mL"},
      {"measurement": "LacZ negative Total", "setting": "[2]; Tetracycline 0.1 μg/ml in food", "value": 518},
      {"measurement": "LacZ positive Total", "setting": "[2]; Tetracycline 0.1 μg/ml in food", "value": 0},
      {"measurement": "LacZ negative Total", "setting": "[2]; Tetracycline 1 μg/ml in food", "value": 707},
      {"measurement": "LacZ positive Total", "setting": "[2]; Tetracycline 1 μg/ml in food", "value": 0},
      {"measurement": "LacZ negative Total", "setting": "[2]; Tetracycline 5 μg/ml in food", "value": 702},
      {"measurement": "LacZ positive Total", "setting": "[2]; Tetracycline 5 μg/ml in food", "value": 0}
    ]}
  ]
}
